The source of these data is patent US20140336138A1, “COMPOSITIONS AND METHODS FOR SCREENING AND TREATMENT OF STURGE-WEBER SYNDROME, KLIPPEL-TRENAUNAY-WEBER SYNDROME, AND PORT-WINE STAINS (PWSS)” (The Johns Hopkins University, priority 2013, published 2014).

Data set [1] deals with phosphorylated-ERK. In words: Western analysis of phosphorylated-ERK in 293T cells transfected with GNAQ p.R183Q, normalized to tubulin. Format: cell-based, human. The note with it: 100 nM digoxin, 42 hours, p=0.0003. The method, then:
293T cells will be transiently transfected with wildtype, GNAQ, the p.Arg183Gln, or the p.Gln209Leu mutant constructs. Fugene6 (Promega) is used for the 293T transfections (3:1 ratio Fugene6:DNA). The cells are transfected at 60-75% confluency for about an hour.
Levels of phosphorylated-ERK (rabbit monoclonal Phospho-p44/42 MAPK (Erk1/2) Cell Signaling Technology) and phosphorylated-JNK are measured by western analysis and normalized to tubulin. RGS2 and/or RGS4 levels are measured by western analysis and normalized to tubulin. Protein samples are collected from three replicates per cell type and condition. Additionally, similar experiments are performed with the p.Gln209Leu GNAQ mutants as well.

The test system of data set [2] is cells transfected with the R183Q mutation. In words: Cell death / appearance of drug treated R183Q transfected cell cultures. The class given is cell-based, human. The note with it: 100 nM digoxin.
The test system of data set [3] is RGS2. To be noted: cited from earlier work.
The test system of data set [4] is RGS4. To be noted: cited from earlier work.

In the case of `C[C@H]1O[C@@H](O[C@H]2[C@@H](O)C[C@H](O[C@H]3[C@@H](O)C[C@H](O[C@H]4CC[C@@]5(C)[C@H](CC[C@@H]6[C@@H]5C[C@@H](O)[C@]5(C)[C@@H](C7=CC(=O)OC7)CC[C@]65O)C4)O[C@@H]3C)O[C@@H]2C)C[C@H](O)[C@@H]1O` [digoxin], the “p-ERK increase (drug vs vehicle)” value in data set [1] is “about 3.9 fold”. In addition, the “cell death in drug treated cell cultures” value in data set [2] (18 hours) is “increased cell death”. Also, in data set [2] (42 hours), the “cell death / growth in drug treated cells” value is “increased cell death/less growth”. Further, the RGS2 protein levels result in data set [3] is reported as “increase”. The RGS4 protein levels result in data set [4] is recorded as “not”.

Consider `C[C@@H]1O[C@@H](O[C@H]2C[C@@H](O)[C@]3(CO)[C@H]4[C@H](O)C[C@]5(C)[C@@H](C6=CC(=O)OC6)CC[C@]5(O)[C@@H]4CC[C@]3(O)C2)[C@H](O)[C@H](O)[C@H]1O` [ouabain], for which the RGS2 protein levels entry in data set [3] is “increase”. Moreover, the RGS4 protein levels result in data set [4] is “not”.
